Laboratory results as given in US5686104A, “Stable oral CI-981 formulation and process of preparing same” (Warner-Lambert Company, priority 1994, dated 1997).
Counter-ions that a name gives are not always drawn.

Legend:
[1] = test system: sterol synthesis (rat liver homogenate); settings: read-out: IC50, concentration required for 50% inhibition of sterol synthesis, one-hour period, data disclosed in U.S. Pat. No. 5,273,995; cited from earlier work
[2] = Stability of the hydroxy acid compounds in acidic environment, under light, or in wet-granulated compositions (statement); format: physicochemical; settings: no calcium carbonate

Compound | IC50 [1] [nM] | degradation in compositions prepared by the wet-granulation method [2]
CC(C)c1c(C(=O)Nc2ccccc2)c(-c2ccccc2)c(-c2ccc(F)cc2)n1CC[C@@H](O)C[C@@H](O)CC(=O)O (relative stereo) [Racemate] | 45 | –
CC(C)c1c(C(=O)Nc2ccccc2)c(-c2ccccc2)c(-c2ccc(F)cc2)n1CC[C@@H](O)C[C@@H](O)CC(=O)O [CI-981 Hemi-Calcium, [R-(R*,R*)]-2-(4-fluorophenyl)-β,δ-dihydroxy-5-(1-methylethyl)-3-phenyl-4-[(phenylamino)carbonyl]-1H-pyrrole-1-heptanoic acid hemicalcium salt] | 4.4 | degrades rapidly
CC(C)c1c(C(=O)Nc2ccccc2)c(-c2ccccc2)c(-c2ccc(F)cc2)n1CC[C@H](O)C[C@H](O)CC(=O)O [[S-(R*R*)] isomer] | 440 | –
